US8138205B2, “Heteroarylalkoxy-substituted quinolone inhibitors of PDE4” (Kalypsys, Inc., priority 2006, dated 2012)

Assays:
PDE4B = target: T1, PDE4B (Homo sapiens, UniProt Q07343); assay: PDE/AK Biological Activity Assay (coupled PDE/adenylate kinase bioluminescent assay); type: biochemical; settings: catalytic domain of PDE4B, read-out: PDE4 Enzyme IC50
T1 construct: hex-histidine (His6) (N); made in house
Description: Phosphodiesterases regulate the activity of the second messenger cyclic adenosine monophosphate (cAMP) by hydrolyzing cAMP to adenosine monophosphate (AMP). We developed a coupled PDE/AK bioluminescent high-throughput assay to measure the activity of phosphodiesterases. In the PDE/AK assay, the AMP produced from the hydrolysis of cAMP by phosphodiesterase is converted to adenosine diphosphate (ADP) by the phosphotransferase activity of adenylate kinase (also known as ADK or myokinase). Adenylate kinase will catalyze the conversion of 1 mole of AMP and 1 mole of ATP into 2 moles of ADP. Thus the conversion of AMP to ADP will result in the subsequent loss of ATP. The decrease in ATP concentration can be monitored as light output using luciferase in a reaction that requires ATP to produce light. The PDE/AK assay uses luciferase, which catalyzes the production of light from ATP present in the reaction mix. The amount of emitted light is inversely proportional to the level of AMP present in the reaction. Test compounds are incubated with the phosphodiesterases and phosphodiesterase inhibitors will decrease the rate of cAMP hydrolysis and decrease the subsequent production of AMP. Thus phosphodiesterase inhibitors will decrease the conversion of ATP to ADP and result in the greatest emission of light.
Compounds may be screened for functional potency in in vitro biochemical assays for their ability to inhibit the activity of phosphodiesterase (PDE) enzymes. A coupled PDE/AK assay was utilized to measure the inhibitory activity of compounds on PDE isoforms. The catalytic domain of PDE4B was fused to an amino-terminus hex-histidine affinity tag and purified. PDE4B enzyme was incubated with compounds for 10 minutes. Cyclic AMP substrate, ATP and adenylate kinase were then added to the PDE enzyme mix and incubated for 45 minutes at room temperature. A commercial ATP detection assay, Perkin Elmer's easyLite ATP detection reagent, was then added to measure the relative amount of ATP present in the reaction. After 10 minute incubation, the luminescent signal was quantitated with either the Perkin Elmer Viewlux or Molecular Devices Acquest or Analyst. Roflumilast and Rolipram are the positive controls used in the assay.

Solubility Protocol = type: physicochemical; settings: aqueous buffer, thermodynamic from solid; pH 7.4, 0.1 M sodium phosphate buffer
Protocol: About 5 mg of a compound was mixed with 500 μL of pH 7.4, 0.1 M sodium phosphate buffer. The mixture was adjusted to the original pH of 7.4 and then mixed overnight or longer via rotary mixing. The sample was checked for pH and then filtered through a 0.45 μm filter. If the pH drifted away, the sample was adjusted to its original pH and mixed for at least 15 minutes before filtration. The filtrate was analyzed using HPLC.

T1 sequence (Q07343 330-659 limits assumed, species assumed): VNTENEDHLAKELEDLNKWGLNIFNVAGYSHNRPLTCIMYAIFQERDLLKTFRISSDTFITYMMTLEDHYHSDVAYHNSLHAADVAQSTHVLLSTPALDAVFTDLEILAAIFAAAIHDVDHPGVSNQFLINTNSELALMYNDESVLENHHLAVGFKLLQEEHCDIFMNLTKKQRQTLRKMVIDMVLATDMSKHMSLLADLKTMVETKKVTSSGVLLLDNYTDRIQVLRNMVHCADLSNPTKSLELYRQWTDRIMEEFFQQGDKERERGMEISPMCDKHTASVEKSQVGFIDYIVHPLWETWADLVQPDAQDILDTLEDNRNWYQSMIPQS

Compound | IC50 (PDE4B) | solubility (Solubility Protocol)
COc1ccc2c(Nc3c(C)cncc3C)cc(=O)[nH]c2c1OCCCCCCc1nn[nH]n1 [Example 88, 8-(6-(2H-tetrazol-5-yl)hexyloxy)-4-(3,5-dimethylpyridin-4-ylamino)-7-methoxyquinolin-2(1H)-one] | < 1000 nM | 
COc1ccc2c(Nc3c(Cl)cncc3Cl)cc(=O)[nH]c2c1OCCCCC(=O)NCC(=O)O [Example 94, 2-(5-(4-(3,5-dichloropyridin-4-ylamino)-7-methoxy-2-oxo-1,2-dihydroquinolin-8-yloxy)pentanamido)acetic acid] | < 1000 nM | 
COc1ccc2c(Nc3c(C)cncc3C)cc(=O)[nH]c2c1OCCCCCCO [Example 84, 4-(3,5-dimethylpyridin-4-ylamino)-8-(6-hydroxyhexyloxy)-7-methoxyquinolin-2(1H)-one] | < 1000 nM | 
CCN1CCN(CCCCCCOc2c(OC)ccc3c(Nc4c(Cl)cncc4Cl)cc(=O)[nH]c23)CC1 [Example 23, 4-(3,5-dichloropyridin-4-ylamino)-8-(6-(4-ethylpiperazin-1-yl)hexyloxy)-7-methoxyquinolin-2(1H)-one] | < 1000 nM | 
COc1ccc2c(Nc3c(C)cncc3C)cc(=O)[nH]c2c1OCCCCN(C)C [Example 44, 8-(4-(dimethylamino)butoxy)-4-(3,5-dimethylpyridin-4-ylamino)-7-methoxyquinolin-2(1H)-one] | < 1000 nM | 
COc1ccc2c(Nc3c(Cl)cncc3Cl)cc(=O)[nH]c2c1OCCCCCCN1CCCNCC1 [Example 25, 8-(6-(1,4-Diazepan-1-yl)hexyloxy)-4-(3,5-dichloropyridin-4-ylamino)-7-methoxyquinolin-2(1H)-one] | < 1000 nM | ≥ 1000 µg/mL
COc1ccc2c(Nc3c(Cl)cncc3Cl)cc(=O)[nH]c2c1OCCCCC(=O)N[C@@H](CC(=O)O)C(=O)O [Example 66, (S)-2-(5-(4-(3,5-dichloropyridin-4-ylamino)-7-methoxy-2-oxo-1,2-dihydroquinolin-8-yloxy)pentanamido)succinic acid] | < 1000 nM | ≥ 1000 µg/mL
COc1ccc2c(Nc3c(Cl)cncc3Cl)cc(=O)[nH]c2c1OCCCCc1nn[nH]n1 [Example 68, 8-(4-(2H-tetrazol-5-yl)butoxy)-4-(3,5-dichloropyridin-4-ylamino)-7-methoxyquinolin-2(1H)-one] | < 1000 nM | ≥ 1000 µg/mL
COc1ccc2c(Nc3c(C)cncc3C)cc(=O)[nH]c2c1OCCCn1ccnc1 [Example 77, 8-(3-(1H-imidazol-1-yl)propoxy)-4-(3,5-dimethylpyridin-4-ylamino)-7-methoxyquinolin-2(1H)-one] | < 1000 nM | < 1000 µg/mL
COc1ccc2c(Nc3c(C)cncc3C)cc(=O)[nH]c2c1OCCCO [Example 81, 4-(3,5-dimethylpyridin-4-ylamino)-8-(3-hydroxypropoxy)-7-methoxyquinolin-2(1H)-one] | < 1000 nM | 
COc1ccc2c(Nc3c(Cl)cncc3Cl)cc(=O)[nH]c2c1OCCCCCCc1nn[nH]n1 [Example 71, 8-(6-(2H-tetrazol-5-yl)hexyloxy)-4-(3,5-dichloropyridin-4-ylamino)-7-methoxyquinolin-2(1H)-one] | < 1000 nM | ≥ 1000 µg/mL
COc1ccc2c(Nc3c(C)cncc3C)cc(=O)[nH]c2c1OCCCCCCN1CCCC1 [Example 37, 4-(3,5-Dimethylpyridin-4-ylamino)-7-methoxy-8-(6-(pyrrolidin-1-yl)hexyloxy)quinolin-2(1H)-one] | < 1000 nM | ≥ 1000 µg/mL
COc1ccc2c(Nc3c(C)cncc3C)cc(=O)[nH]c2c1OCCCCCN(C)C [Example 45, 8-(5-(dimethylamino)pentyloxy)-4-(3,5-dimethylpyridin-4-ylamino)-7-methoxyquinolin-2(1H)-one] | < 1000 nM | ≥ 1000 µg/mL
COc1ccc2c(Nc3c(Cl)cncc3Cl)cc(=O)[nH]c2c1OCCCCCCN(C)CCCO [Example 33, 4-(3,5-Dichloropyridin-4-ylamino)-8-(6-((3-hydroxypropyl)(methyl)amino)hexyloxy)-7-methoxyquinolin-2(1H)-one] | < 1000 nM | ≥ 1000 µg/mL
COc1ccc2c(Nc3c(Cl)cncc3Cl)cc(=O)[nH]c2c1OCCCCO [Example 41, 4-(3,5-dichloropyridin-4-ylamino)-8-(4-hydroxybutoxy)-7-methoxyquinolin-2(1H)-one] | < 1000 nM | ≥ 1000 µg/mL
COc1ccc2c(Nc3c(Cl)cncc3Cl)cc(=O)[nH]c2c1OCCCCCCN(C)CCCN(C)C [Example 27, 4-(3,5-Dichloropyridin-4-ylamino)-8-(6-((3-(dimethylamino)propyl)(methyl)amino)hexyloxy)-7-methoxyquinolin-2(1H)-one] | < 1000 nM | ≥ 1000 µg/mL
COc1ccc2c(Nc3c(Cl)cncc3Cl)cc(=O)[nH]c2c1OCCCCCCN(C)CCN(C)C [Example 24, 4-(3,5-dichloropyridin-4-ylamino)-8-(6-((2-(dimethylamino)ethyl)(methyl)amino)hexyloxy)-7-methoxyquinolin-2(1H)-one] | < 1000 nM | 
COc1ccc2c(Nc3c(Cl)cncc3Cl)cc(=O)[nH]c2c1OCCCCCCN(CCO)CCO [Example 31, 8-(6-(Bis(2-hydroxyethyl)amino)hexyloxy)-4-(3,5-dichloropyridin-4-ylamino)-7-methoxyquinolin-2(1H)-one] | < 1000 nM | 
COc1ccc2c(Nc3c(Cl)cncc3Cl)cc(=O)[nH]c2c1OCCCOCCOCCOCCO [Example 96, 4-(3,5-dichloropyridin-4-ylamino)-8-(3-(2-(2-(2-hydroxyethoxy)ethoxy)ethoxy)propoxy)-7-methoxyquinolin-2(1H)-one] | < 1000 nM | 
COc1ccc2c(Nc3c(Cl)cncc3Cl)cc(=O)[nH]c2c1OCCCCCCNC(=N)N [Example 63, 1-(6-(4-(3,5-dichloropyridin-4-ylamino)-7-methoxy-2-oxo-1,2-dihydroquinolin-8-yloxy)hexyl)guanidine] | < 1000 nM | 
COc1ccc2c(Nc3c(C)cncc3C)cc(=O)[nH]c2c1OCCCc1nn[nH]n1 [Example 85, 8-(3-(2H-tetrazol-5-yl)propoxy)-4-(3,5-dimethylpyridin-4-ylamino)-7-methoxyquinolin-2(1H)-one] | < 1000 nM | 
COc1ccc2c(Nc3c(C)cncc3C)cc(=O)[nH]c2c1OCCCCCO [Example 83, 4-(3,5-dimethylpyridin-4-ylamino)-8-(5-hydroxypentyloxy)-7-methoxyquinolin-2(1H)-one] | < 1000 nM | 
COc1ccc2c(Nc3c(C)cncc3C)cc(=O)[nH]c2c1OCCCCO [Example 82, 4-(3,5-dimethylpyridin-4-ylamino)-8-(4-hydroxybutoxy)-7-methoxyquinolin-2(1H)-one] | < 1000 nM | 
COc1ccc2c(Nc3c(C)cncc3C)cc(=O)[nH]c2c1OCCCCc1nn[nH]n1 [Example 86, 8-(4-(2H-tetrazol-5-yl)butoxy)-4-(3,5-dimethylpyridin-4-ylamino)-7-methoxyquinolin-2(1H)-one] | < 1000 nM | 
COc1ccc2c(Nc3c(C)cncc3C)cc(=O)[nH]c2c1OCCCCCCN1CCN(C)CC1 [Example 34, 4-(3,5-Dimethylpyridin-4-ylamino)-7-methoxy-8-(6-(4-methylpiperazin-1-yl)hexyloxy)quinolin-2(1H)-one] | < 1000 nM | 
COc1ccc2c(Nc3c(Cl)cncc3Cl)cc(=O)[nH]c2c1OCCCOCCOCCO [Example 98, 4-(3,5-dichloropyridin-4-ylamino)-8-(3-(2-(2-hydroxyethoxy)ethoxy)propoxy)-7-methoxyquinolin-2(1H)-one] | < 1000 nM | 
COCCOCCOCCOCCCOc1c(OC)ccc2c(Nc3c(Cl)cncc3Cl)cc(=O)[nH]c12 [Example 97, 8-(2,5,8,11-tetraoxatetradecan-14-yloxy)-4-(3,5-dichloropyridin-4-ylamino)-7-methoxyquinolin-2(1H)-one] | < 1000 nM | 
COc1ccc2c(Nc3c(C)cncc3C)cc(=O)[nH]c2c1OCCCCCc1nn[nH]n1 [Example 87, 8-(5-(2H-tetrazol-5-yl)pentyloxy)-4-(3,5-dimethylpyridin-4-ylamino)-7-methoxyquinolin-2(1H)-one] | < 1000 nM | 
COc1ccc2c(Nc3c(C)cncc3C)cc(=O)[nH]c2c1OCC(C)C [Example 12, 4-(3,5-Dimethylpyridin-4-ylamino)-8-isobutoxy-7-methoxyquinolin-2(1H)-one] |  | ≥ 1000 µg/mL
COc1ccc2c(Nc3c(Cl)cncc3Cl)cc(=O)[nH]c2c1OCCCCC(=O)N[C@@H](Cc1c[nH]cn1)C(=O)O [Example 95, (S)-2-(5-(4-(3,5-dichloropyridin-4-ylamino)-7-methoxy-2-oxo-1,2-dihydroquinolin-8-yloxy)pentanamido)-3-(1H-imidazol-4-yl)propanoic acid] | < 1000 nM | 
